Like-named read-outs stand apart in the source and are kept apart here.
Legend:
[1] = target: AmCA (Apis mellifera spermatheca carbonic anhydrase); settings: AmCA inhibition data from previous study; cited from earlier work
[2] = target: AmCA (Apis mellifera spermatheca carbonic anhydrase); test: AmCA inhibition, colorimetric CO2 hydrase assay; assay type: biochemical; settings: AmCA from honey bee spermatheca, triplicate, enzyme concentration 8.9 nM
Description: Bee spermatheca samples were washed three times with 50 mM Tris/Sulphate (pH 7.8). Spermatecha samples taken from 200 bees were combined and homogenised with liquid nitrogen, then placed in the same buffer and centrifuged at 4 °C, 15,000 g for 30 min. The precipitate portion was discarded and the supernatant portion was separated and used in subsequent studies.
The enzyme was purified using Sepharose-4B-sulfanilamide affinity gel prepared by our group. Aniline was used as a spacer arm in the chromatography column. The column was then equilibrated with 25 mM Tris-HCl/0.1M Na2SO4 (pH 8.7) and the gel was washed with 25 mM Tris-HCl/22 mM Na2SO4 (pH 8.7). Finally, elution was performed with 1 M NaCl/25 mM Na2HPO4 (pH 6.3). The temperature was kept at 4 °C during all experiments.
The effects of methomyl, oxamyl, deltamethrin, dichlorodiphenyltrichloroethane ([…]), cypermethrin and diazinon on AmCA activities were assayed colorimetrically using the CO2 hydrase assay, in triplicate at each concentration of inhibitor (ranging from 1 nM to 10 mM). Control enzyme activity was taken as 100%. An activity % versus inhibitor graph was drawn for all pesticides (Microsoft Office 2000, Excel). Pesticide concentrations that caused 50% inhibition (IC50) of the enzyme activity were thus obtained graphically using a regression software. The enzyme concentration in the assay system was 8.9 nM.

[3] = test system: honey bees and bumblebees; settings: cited from earlier work
[4] = test system: honey bees and bumblebees; settings: cited from earlier work; remark: listed apart in the source

Row | Structure (SMILES) | IC50 [1] | IC50 [2] | topical lethal dose (LD50) [3] | oral dose rates (oral LD50) [4]
1 | CCNc1nc(Cl)nc(NC(C)C)n1 [Atrazine, atrazine] | 16.5 nM |  |  | 
2 | CNC(=O)Oc1cccc2ccccc12 [Carbaryl, carbaryl] | 3.1 nM |  |  | 
3 | CNC(=O)Oc1cccc2c1OC(C)(C)C2 [Carbonfuran, carbofuran] | 8.7 nM |  |  | 
4 | CC1(C)C(C=C(Cl)Cl)C1C(=O)OC(C#N)c1cccc(Oc2ccccc2)c1 (stereo not drawn) [Cypermethrin, cypermethrin] |  | 7.8 ± 0.3 nM | 0.03 μg/bee | 0.06 μg/bee
5 | CC1(C)[C@H](C(=O)O[C@H](C#N)c2cccc(Oc3ccccc3)c2)[C@@H]1C=C(Br)Br [Deltamethrin, deltamethrin] |  | 2.8 ± 0.1 nM | 0.02 μg/bee | 
6 | CCOP(=S)(OCC)Oc1cc(C)nc(C(C)C)n1 [Diazinon, diazinon] |  | 38.5 ± 1.2 nM | 0.38 μg/bee | 0.21 μg/bee
7 | CNC(=O)ON=C(C)SC [Methomyl, methomyl] |  | 2.3 ± 0.1 nM | 0.49 μg/bee | 3.38 μg/bee
8 | CNC(=O)O/N=C(\SC)C(=O)N(C)C [Oxamyl, oxamyl] |  | 2.5 ± 0.1 nM |  | 
9 | CNC(=O)Oc1ccccc1OC(C)C [Propoxur, propoxur] | 32.1 nM |  |  | 
10 | CCNc1nc(Cl)nc(NCC)n1 [Simazin, simazine] | 27.3 nM |  |  | 
11 | CC(C)(C)C(O)(CCc1ccc(Cl)cc1)Cn1cncn1 (stereo not drawn) [Tebuconazole, tebuconazole] | 3 nM |  |  | 

— PMC7594722, “Investigation of pesticides on honey bee carbonic anhydrase inhibition” (Journal of Enzyme Inhibition and Medicinal Chemistry, 2020)
